Reference: PubChem BioAssay (NCI)
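Grown in 96-well plates, cells were treated for 48 hours with each compound at five concentrations. Insufficient inhibition: endpoint recorded as highest concentration tested. At the GI50, growth is halved. At the TGI there is no net growth.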

Legend:
Experiment in all cases: NCI anticancer screen, dose series, 48 h
HCT-15 colon = system: HCT-15 colon
OVCAR-8 ovarian = system: OVCAR-8 ovarian
SF-295 CNS = system: SF-295 CNS
SK-MEL-5 melanoma = system: SK-MEL-5 melanoma
UACC-62 melanoma = system: UACC-62 melanoma
CAKI-1 renal = system: CAKI-1 renal
EKVX NSCLC = system: EKVX NSCLC
MCF7 breast = system: MCF7 breast
RPMI-8226 leukemia = system: RPMI-8226 leukemia
HS 578T breast = system: HS 578T breast

| Structure (SMILES) | TGI (HCT-15 colon) | TGI (OVCAR-8 ovarian) | TGI (SF-295 CNS) | TGI (SK-MEL-5 melanoma) | TGI (UACC-62 melanoma) | GI50 (CAKI-1 renal) | TGI (CAKI-1 renal) | GI50 (EKVX NSCLC) | TGI (EKVX NSCLC) | GI50 (MCF7 breast) | TGI (MCF7 breast) | GI50 (OVCAR-8 ovarian) | GI50 (RPMI-8226 leukemia) | TGI (RPMI-8226 leukemia) | GI50 (SF-295 CNS) | GI50 (SK-MEL-5 melanoma) | GI50 (UACC-62 melanoma) | GI50 (HCT-15 colon) | GI50 (HS 578T breast) | TGI (HS 578T breast) |
| --- | --- | --- | --- | --- | --- | --- | --- | --- | --- | --- | --- | --- | --- | --- | --- | --- | --- | --- | --- | --- |
| CCCC/C=C1\CCC(CN2CCCC2)C1=O (configuration not stated) | 11.2 µM | 28.5 µM | 36.4 µM | 31.1 µM | 31.2 µM |  |  |  |  |  |  |  |  |  |  |  |  |  |  |  |
| CCOC(=O)/N=c1\ssc(Cl)c1Cl |  | 55.1 µM | 33.2 µM | 19.1 µM | 29.6 µM | 14.9 µM | 29.4 µM | 19.9 µM | 42.7 µM | 3.54 µM | 16.8 µM | 19.7 µM | 3.52 µM | > 100 µM | 16.7 µM | 3.9 µM | 14 µM |  |  |  |
| Cc1ccc(N2C(=O)/C(=C3\Sc4c(nc(C)n(C)c4=O)N3c3ccccc3)SC2=S)cc1 | > 100 µM | 91.3 µM | > 100 µM | > 100 µM | > 100 µM |  | > 100 µM |  | > 100 µM |  |  |  |  | > 100 µM |  |  |  |  |  |  |
| CN1C=C(C(N)=O)C2CC(O)[C@@](NC(=O)CS(N)(=O)=O)(C(=O)O)C2C1 (some centres not stated) | 66.3 µM | 18.2 µM | 6.97 µM | 15.7 µM | 7.02 µM |  | > 100 µM |  | > 42.6 µM |  |  |  |  | 58.9 µM |  |  |  |  |  |  |
| CC(=O)[O-].O=[N+]([O-])c1ccc([O-])c(C=NCCN=Cc2cc([N+](=O)[O-])ccc2[O-])c1.[Mn+3] | > 100 µM | > 100 µM | > 100 µM | > 100 µM | > 100 µM |  |  |  |  |  |  | > 100 µM |  |  | > 100 µM | > 100 µM | > 100 µM | > 100 µM |  |  |
| c1cc2ccc1C1NCCCN1CCN1CCCNC1c1ccc(cc1)C1NCCCN1CCN1CCCNC21 (configuration not stated) | > 100 µM | > 100 µM | > 100 µM | > 100 µM | > 100 µM |  | > 100 µM |  | > 100 µM |  |  |  |  | > 100 µM |  |  |  |  |  |  |
| OCCN(CCO)c1ncnc2c1sc(=S)n2-c1ccccc1 | > 100 µM | > 100 µM | > 100 µM | > 100 µM | > 100 µM |  | > 100 µM |  | > 100 µM |  |  |  |  | > 100 µM |  |  |  |  |  |  |
| CC(C)(C)c1cc(C(=O)O)c(C(c2ccccc2)c2ccccc2C(=O)O)c(C(=O)O)c1 (configuration not stated) | > 100 µM | > 100 µM | > 100 µM |  | > 100 µM |  | > 100 µM |  | > 100 µM |  |  |  |  |  |  |  |  |  |  |  |
| CC12O[Te]34OC1(C)C(C)(O3)C2(C)O4 | 54 µM | 24.4 µM | 18.3 µM |  | 87.5 µM |  | 22.6 µM |  | 62.6 µM |  |  |  |  |  |  |  |  |  |  |  |
| C=C1c2ccccc2N(S(=O)(=O)c2ccc(C)cc2)C12CCCCC2 | > 100 µM | > 100 µM | > 100 µM | > 100 µM | > 100 µM |  |  |  | > 100 µM |  |  |  |  | > 100 µM |  |  |  |  |  |  |
| COc1ccc2nc3cc(Cl)ccc3c(Nc3ccc(O)c(CN4CCCC4)c3)c2c1 | 10.3 µM | 4.87 µM | 3.53 µM | 3.24 µM | 3.51 µM | 2.09 µM | 4.88 µM | 3.18 µM | 14.4 µM | 1.32 µM | 2.87 µM | 2.01 µM | 2.55 µM | 6.41 µM | 1.6 µM | 1.82 µM | 1.71 µM | 2.6 µM |  |  |
| C#CCn1cc(C=C2C(=O)NC(=S)NC2=O)c2cc(Cl)ccc21 | 4.64 µM | 7.44 µM | 4.12 µM | 3.31 µM | 3.91 µM | 1.84 µM | 4.06 µM | 2.14 µM | 5.92 µM | 1.67 µM | 3.46 µM | 2.72 µM |  |  | 1.93 µM | 1.81 µM | 1.85 µM | 1.98 µM | 2.34 µM | 7.6 µM |
| NC(=O)c1ncn(C2OC(CO)C(O)C2O)c1NC(=S)NC(=O)c1ccccc1 (configuration not stated) |  | > 100 µM | > 100 µM | > 100 µM | > 100 µM |  | > 100 µM |  | > 100 µM |  |  |  |  | > 100 µM |  |  |  |  |  |  |
| Nc1nc(Cl)cc(NCCCCCCNc2cc(Cl)nc(N)n2)n1 | > 100 µM | > 100 µM | > 100 µM | > 100 µM | 97.8 µM |  | > 100 µM |  | > 100 µM |  |  |  |  | > 100 µM |  |  |  |  |  |  |
| C1=CC=C2NCCSCCNC3=CC=CC=CC3=NCCSCCN=C2C=C1 | > 100 µM | > 100 µM | > 100 µM | > 100 µM | > 100 µM |  | > 100 µM |  | > 100 µM |  |  |  |  | > 100 µM |  |  |  |  |  |  |
| CCOC(=O)c1cc(C(=O)O)c(=O)n2c1[nH]c1ccccc12 | > 100 µM | > 100 µM | > 100 µM | > 100 µM | > 100 µM |  | > 100 µM |  | > 100 µM |  |  |  |  | > 100 µM |  |  |  |  |  |  |
| O=C1OC(c2ccc(Cl)c3ccccc23)c2ccccc21 (configuration not stated) | > 100 µM | > 100 µM | > 100 µM | > 100 µM | > 100 µM |  | > 100 µM |  | > 100 µM |  |  |  |  | > 100 µM |  |  |  |  |  |  |
